This is an account of results in patent publication US7220777B2, “Lactam derivatives as antagonists for human 11cby receptors” (SmithKline Beecham P.L.C., priority 2001, dated 2007).

The target of experiment [1] is T1, 353 form of the 11CBy receptor (Homo sapiens, UniProt Q99705).
T1 construct: expressed in transfected cells; well washed membranes
Description: Radioligand ([125I]-MCH) competitive binding on membranes from HEK293 cells stably expressing 11CBy receptors. The conditions noted are these: [125I]-MCH 0.22 nM, 45 min 37° C., pH7.4, pKi calculated from IC50. The method, then: Membranes ([…] protein) were incubated with [^125I]-Melanin Concentrating Hormone (0.22 nM) (obtained from NEN) in the presence and absence of competing test compounds for 45 min at 37° C. in a buffer (pH7.4), containing 50 mM Tris and 0.2% BSA. Non-specific binding was defined using […] Melanin Concentrating Hormone (obtained from Bachem). The test compounds were added at concentrations between […] and 10 pM in 10 concentration steps. Following incubation, the reaction was stopped by filtration through GF/B filters and washed with 4×1 ml of ice-cold 50 mM Tris buffer. Microscint 20 (Packard) was added to the filters and the radioactivity measured using a Packard TopCount. Bound cpm in the presence of test compound was expressed as a fraction of the bound cpm in the absence of test compound and plotted against the concentration of compound. From this an IC50 was determined from which the pKi was calculated.

Another experiment deals with conscious CD rats. The experiment is described as follows: Effects of 11CBy antagonists on plasma glucagon and blood glucose levels (rat glucagon secretion model). It is filed as in vivo.
[2] abbreviates: Example A4 15 mg/kg + MCH group, 5 min.
Setting [3] is: Example A4 15 mg/kg + MCH group, 15 min.
[4] abbreviates: Example A4 15 mg/kg + MCH group, time 0.

Where no end group is shown, it is not given here.

T1 sequence (Q99705 whole entry): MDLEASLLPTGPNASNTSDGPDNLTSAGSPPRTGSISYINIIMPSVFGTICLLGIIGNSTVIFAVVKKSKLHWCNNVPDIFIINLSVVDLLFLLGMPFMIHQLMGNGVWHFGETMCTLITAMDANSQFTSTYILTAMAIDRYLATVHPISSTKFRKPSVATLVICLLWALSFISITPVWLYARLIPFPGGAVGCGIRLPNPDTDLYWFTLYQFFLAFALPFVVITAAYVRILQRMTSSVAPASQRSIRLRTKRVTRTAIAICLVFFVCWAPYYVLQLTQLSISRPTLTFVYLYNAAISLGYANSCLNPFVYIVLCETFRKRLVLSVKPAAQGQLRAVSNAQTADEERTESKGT
Description for conscious CD rats: Study of Effects of 11CBy Antagonists on Plasma Glucagon and Blood Glucose Levels

Take `COc1cc(N2C(=O)c3ccc(Oc4ccccc4)cc3C2=O)ccc1OCCN1CCCC1.Cl` [Example A4, 2-[3-Methoxy-4-(2-pyrrolidin-1-yl-ethoxy)-phenyl]-5-phenoxy-isoindole-1,3-dione hydrochloride]: in experiment [1], the “pKi in binding to the 353 form of the 11CBy receptor” value is 7.7. Also, the Blood glucose in the experiment with conscious CD rats (setting [2]) is recorded as 6.46 ± 0.46 (7) mmol/l; in the experiment with conscious CD rats (setting [3]) it was 7.71 ± 0.43 (7) mmol/l; in the experiment with conscious CD rats (setting [4]), 5.35 ± 0.23 (7) mmol/l. The Plasma glucagon in the experiment with conscious CD rats (setting [2]) is 30.85 ± 2.01 (7) pg/ml; with conscious CD rats (setting [3]) it was 22.87 ± 0.56 (5) pg/ml; in the experiment on conscious CD rats (setting [4]) it was 23.45 ± 1.16 (7) pg/ml. Further, the “rise in plasma glucagon” value in the experiment on conscious CD rats (Example A4 15 mg/kg iv five minutes prior to iv MCH bolus, after 5 minutes) is “no rise”; with conscious CD rats (Example A4 15 mg/kg iv five minutes prior to iv MCH bolus, after 15 min) it was 2.7%. The blood glucose increase in the experiment on conscious CD rats (Example A4 15 mg/kg iv five minutes prior to iv MCH bolus, time not given) stood at 44%.

Usually Ki stands for the equilibrium dissociation constant of an inhibitor or competing ligand from its target. As to `COc1cc(N2C(=O)c3ccc(Nc4ccccc4)cc3C2=O)ccc1OCCN1CCCC1` [Example A5, 2-[3-Methoxy-4-(2-pyrrolidin-1-yl-ethoxy)-phenyl]-5-phenylamino-isoindole-1,3-dione], the Ki in experiment [1] was 10 to 31.6 nM.

`COc1cc(-n2nnc3cc(-c4ccccc4)ccc3c2=O)ccc1OCCN1CCCC1` [Example C5, 3-[3-Methoxy-4-(2-pyrrolidin-1-yl-ethoxy)-phenyl]-7-phenyl-3H-benzo[d][1,2,3]triazin-4-one]: in experiment [1], the Ki was 10 to 31.6 nM.

Regarding `COc1cc(-n2cnc3cc(-c4ccccc4)sc3c2=O)ccc1OCCN1CCCC1` [Example F1, 3-[3-Methoxy-4-(2-pyrrolidin-1-yl-ethoxy)-phenyl]-6-phenyl-3H-thieno[3,2-d]pyrimidin-4-one], the Ki in experiment [1] was 10 to 31.6 nM.

As to “MCH (DFDMLRCMLGRVYRPCWQV; ends and bridges not checked; cysteine pairing not given here; UniProt P20382 147-165, looked up) [reference compound]”, the Blood glucose is 6.5 ± 0.33 (7) mmol/l in the experiment on conscious CD rats (MCH 50 ug/kg group, 5 min); 11.81 ± 1.27 (7) mmol/l with conscious CD rats (MCH 50 ug/kg group, 15 min); 5.87 ± 0.22 (7) mmol/l in the experiment on conscious CD rats (MCH 50 ug/kg group, time 0). Besides, the Plasma glucagon in the experiment with conscious CD rats (MCH 50 ug/kg group, 5 min) is 35.16 ± 2.5 (7) pg/ml; with conscious CD rats (MCH 50 ug/kg group, 15 min), 28.67 ± 1.61 (7) pg/ml; in the experiment on conscious CD rats (MCH 50 ug/kg group, time 0) it was 23.6 ± 1.2 (6) pg/ml. Moreover, the “increase in plasma glucagon from the pre-treatment value” is 48.7% in the experiment with conscious CD rats (MCH 50 ug/kg iv alone, after 5 minutes) and 21% with conscious CD rats (MCH 50 ug/kg iv alone, after 15 minutes). Besides, in the experiment on conscious CD rats (MCH 50 ug/kg iv alone, after 15 min), the “maximum rise in blood glucose concentration” value was 101%.
